viability, T/C and IC50 data for six compounds are collected here from PubChem BioAssay AID1963851 (Molecular Pharmacology Branch, DTP, NCI, 2024).

Values joined by “and” are separate entries in the source; they are usually repeats but may differ in a detail not shown here. Identical values can stand only once. Bounds are passed on as bounds.

The test system of the test is 188146-221-R-J1-PDC complex spheroid viability. The experiment in a line: Anticancer human tumor 188146-221-R-J1-PDC patient-derived colon adenocarcinoma cell line growth inhibition [POLQ]. Particulars: for viability, T/C: stronger effect = lower value. The gist of the method:
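PDC + HUVEC + MSC complex spheroids; POLQ inhibitors ± partner drugs; top conc. at/near clinical Cmax, else 10 microM (SN-38 1 microM), half-log dilutions; 37 degrees C, 5% CO2.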

[1] abbreviates: curve of first compound, second compound 0.0316 µM.
Where [2] appears, read: curve of first compound, second compound 0.1 µM.
The mark [3] stands for this setting: curve of first compound, second compound 0.316 µM.
The mark [4] stands for this setting: curve of first compound, second compound 1 µM.
The mark [5] stands for this setting: curve of first compound, second compound 3.16 µM.
Setting [6] is: curve of first compound, second compound 10 µM.
Where [7] appears, read: second compound 0.0316 µM, first compound 0.0316 µM.
Where [8] appears, read: second compound 0.0316 µM, first compound 0.1 µM.
[9] abbreviates: second compound 0.0316 µM, first compound 0.316 µM.
The mark [10] stands for this setting: second compound 0.0316 µM, first compound 1 µM.
Setting [11] is: second compound 0.0316 µM, first compound 3.16 µM.
[12] abbreviates: second compound 0.0316 µM, first compound 10 µM.
The mark [13] stands for this setting: second compound 0.1 µM, first compound 0.0316 µM.
Where [14] appears, read: second compound 0.1 µM, first compound 0.1 µM.
Setting [15] is: second compound 0.1 µM, first compound 0.316 µM.
Setting [16] is: second compound 0.1 µM, first compound 1 µM.
The mark [17] stands for this setting: second compound 0.1 µM, first compound 3.16 µM.
[18] abbreviates: second compound 0.1 µM, first compound 10 µM.
Where [19] appears, read: second compound 0.316 µM, first compound 0.0316 µM.
Setting [20] is: second compound 0.316 µM, first compound 0.1 µM.
Where [21] appears, read: second compound 0.316 µM, first compound 0.316 µM.
Setting [22] is: second compound 0.316 µM, first compound 1 µM.
Setting [23] is: second compound 0.316 µM, first compound 3.16 µM.
Setting [24] is: second compound 0.316 µM, first compound 10 µM.
Setting [25] is: second compound 1 µM, first compound 0.0316 µM.
Where [26] appears, read: second compound 1 µM, first compound 0.1 µM.
Where [27] appears, read: second compound 1 µM, first compound 0.316 µM.
Where [28] appears, read: second compound 1 µM, first compound 1 µM.
Where [29] appears, read: second compound 1 µM, first compound 3.16 µM.
[30] abbreviates: second compound 1 µM, first compound 10 µM.
Where [31] appears, read: second compound 3.16 µM, first compound 0.0316 µM.
Setting [32] is: second compound 3.16 µM, first compound 0.1 µM.
[33] abbreviates: second compound 3.16 µM, first compound 0.316 µM.
Where [34] appears, read: second compound 3.16 µM, first compound 1 µM.
[35] abbreviates: second compound 3.16 µM, first compound 3.16 µM.
[36] abbreviates: second compound 3.16 µM, first compound 10 µM.
[37] abbreviates: second compound 10 µM, first compound 0.0316 µM.
Where [38] appears, read: second compound 10 µM, first compound 0.1 µM.
Setting [39] is: second compound 10 µM, first compound 0.316 µM.
[40] abbreviates: second compound 10 µM, first compound 1 µM.
Where [41] appears, read: second compound 10 µM, first compound 3.16 µM.
The mark [42] stands for this setting: second compound 10 µM, first compound 10 µM.
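Note: spheroids exposed to compounds for seven days.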
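Throughout, for viability, T/C: 100% = DMSO vehicle control viability.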

Take `COc1cc2cc(C(=O)CCC(=O)O)sc2cc1OC`: the viability, T/C is 100% and 119% and 108% (compound 0.0316 µM); 84.6% and 105% (2×) (compound 0.1 µM); 108% and 88.4% and 95% (compound 0.316 µM); 93% and 103% and 104% (compound 1 µM); 100% and 109% and 108% (compound 3.16 µM); 111% and 110% and 95.3% (compound 10 µM). The IC50 (curve of compound) is over 10 µM.

With `Nc1ccn(C2OC(CO)C(O)C2(F)F)c(=O)n1` (configuration not stated), the viability, T/C runs as follows: (compound 0.0316 µM) 27.1% and 27.6% and 53.7%; (compound 0.1 µM) 17.8% and 15.8% and 24.2%; (compound 0.316 µM) 13.2% and 15.2% and 14.9%; (compound 1 µM) 16.1% and 16.9% and 13.9%; (compound 3.16 µM) 15.9% and 19.2% and 16.6%; (compound 10 µM) 10.9% (2×) and 15.4%. Besides, the IC50 (curve of compound) was < 0.0316 µM and 0.0364 µM.

Turning to `O=C(c1cc(Cc2n[nH]c(=O)c3ccccc23)ccc1F)N1CCN(C(=O)C2CC2)CC1` + Nc1ccc(C#CCN(C(=O)Cc2ncc(C(F)(F)F)cc2C(F)(F)F)c2ccc(F)cc2)nn1, the IC50 runs as follows: under setting [1], over 10 µM; under setting [2], over 10 µM; under setting [3], over 10 µM; under setting [4], over 10 µM; under setting [5], over 10 µM; under setting [6], over 10 µM. Besides, the viability, T/C reads like this: under setting [7], 99.7%; under setting [8], 116%; under setting [9], 104%; under setting [10], 98.3%; under setting [11], 93.6%; under setting [12], 72.2%. Also, the viability, T/C was 111% under setting [13]; 100% under setting [14]; 107% under setting [15]; 90.7% under setting [16]; 101% under setting [17]; 75% under setting [18]. The viability, T/C is 116% under setting [19]; 88.5% under setting [20]; 89.9% under setting [21]; 106% under setting [22]; 80.9% under setting [23]; 81.6% under setting [24]. The viability, T/C was 117% under setting [25]; 90.3% under setting [26]; 94.3% under setting [27]; 92.5% under setting [28]; 96% under setting [29]; 69.1% under setting [30]. In addition, the viability, T/C is, setting by setting: under setting [31], 101%; under setting [32], 104%; under setting [33], 97%; under setting [34], 102%; under setting [35], 91.2%; under setting [36], 77.1%. Besides, the viability, T/C is 95.3% under setting [37]; 95.3% under setting [38]; 110% under setting [39]; 89.8% under setting [40]; 88.2% under setting [41]; 73% under setting [42].

In the case of `COc1ccc([C@@H](O)c2cc(-c3ncnc4cc(N5CCOCC5)ccc34)c(F)cc2Cl)nn1`, the viability, T/C runs as follows: (compound 0.0316 µM) 102% and 91.7% and 100%; (compound 0.1 µM) 101% and 92.3% and 96.1%; (compound 0.316 µM) 90.7% and 97.8% and 96.1%; (compound 1 µM) 90.2% and 101% and 91.3%; (compound 3.16 µM) 68.4% and 78.3% and 67.7%; (compound 10 µM) 32.3% and 39.1% and 29.9%. Also, where the note is “curve of compound”, the IC50 was 5.75 µM and 7.26 µM and 5.43 µM.

Turning to `CC(C)n1c(=O)n(C)c2cnc3cc(F)c(-c4ccc(OCCCN5CCCCC5)nc4)cc3c21`, the viability, T/C is, setting by setting: (compound 0.0316 µM) 96.9% and 102% and 108%; (compound 0.1 µM) 111% and 96.7% and 100%; (compound 0.316 µM) 88.3% and 89.4% and 92.5%; (compound 1 µM) 105% and 101% and 110%; (compound 3.16 µM) 104% and 106% and 88.8%; (compound 10 µM) 77% and 95.2% and 71.2%. The IC50 (curve of compound) was over 10 µM.

Consider `CC(C)n1c(=O)n(C)c2cnc3cc(F)c(-c4ccc(OCCCN5CCCCC5)nc4)cc3c21` + COC1C(OC(N)=O)C(O)C(Oc2ccc3c(O)c(NC(=O)c4ccc(O)c(CC=C(C)C)c4)c(=O)oc3c2C)OC1(C)C, for which the IC50 under setting [1] was over 10 µM; the IC50 under setting [2] is over 10 µM; the IC50 under setting [3] is over 10 µM; the IC50 under setting [4] was over 10 µM; the IC50 under setting [5] was over 10 µM; the IC50 under setting [6] is over 10 µM. Further, the viability, T/C runs as follows: under setting [7], 103%; under setting [8], 105%; under setting [9], 101%; under setting [10], 97.6%; under setting [11], 94.6%; under setting [12], 82.9%. For the same compound, the viability, T/C was 103% under setting [13]; 95.8% under setting [14]; 106% under setting [15]; 98% under setting [16]; 93.3% under setting [17]; 82% under setting [18]. Besides, the viability, T/C reads like this: under setting [19], 99.6%; under setting [20], 104%; under setting [21], 94.7%; under setting [22], 89.8%; under setting [23], 81.3%; under setting [24], 96.2%. Moreover, the viability, T/C reads like this: under setting [25], 96.8%; under setting [26], 101%; under setting [27], 103%; under setting [28], 102%; under setting [29], 102%; under setting [30], 86.8%. Further, the viability, T/C is, setting by setting: under setting [31], 98.8%; under setting [32], 101%; under setting [33], 93.4%; under setting [34], 96.1%; under setting [35], 108%; under setting [36], 88.7%. Also, the viability, T/C reads like this: under setting [37], 107%; under setting [38], 101%; under setting [39], 109%; under setting [40], 93.7%; under setting [41], 113%; under setting [42], 90.9%.

As usually defined, the viability, T/C is the ratio of treated to control. One may read the IC50 as the concentration at which inhibition is half-maximal.
